Assays:
[1] = molecular target: T1, human EHMT2 913-1193 (Homo sapiens, UniProt Q96KQ7); assay: EHMT2 enzyme assay on histone peptide substrate (EHMT2 PEP); format: biochemical; settings: recombinant human EHMT2 913-1193, histone H3 1-15 peptide, balanced conditions; read-out: EHMT2 PEP (IC50 μM)
T1 construct: recombinant purified human EHMT2 913-1193, Viva; purchased Viva
T1 sequence (Q96KQ7 913-1193): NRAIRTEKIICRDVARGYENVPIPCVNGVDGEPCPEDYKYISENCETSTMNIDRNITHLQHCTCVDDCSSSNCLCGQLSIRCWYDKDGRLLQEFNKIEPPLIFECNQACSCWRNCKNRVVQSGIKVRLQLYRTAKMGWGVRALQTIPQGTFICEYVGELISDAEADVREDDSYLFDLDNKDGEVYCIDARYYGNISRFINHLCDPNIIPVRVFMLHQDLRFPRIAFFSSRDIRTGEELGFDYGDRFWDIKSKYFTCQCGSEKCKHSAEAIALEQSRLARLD
In short: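 Radiometric methyltransferase read-out: ^3H-methyl transfer from ^3H-SAM onto biotinylated histone peptide, captured on streptavidin Flashplates after 60 min reaction at room temperature. Enzyme 0.031 nM, preincubated 30 min with inhibitor; buffer 20 mM Bicine pH 7.5 with 1 mM TCEP; top compound concentration 50 μM final, 2% DMSO.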

[2] = molecular target: T2, EHMT1 (Homo sapiens, UniProt Q9H9B1); assay: EHMT1 enzyme assay on peptide substrate (EHMT1 PEP); format: biochemical; settings: read-out: EHMT1 PEP (IC50 μM)
T2 sequence (Q9H9B1 1-1298): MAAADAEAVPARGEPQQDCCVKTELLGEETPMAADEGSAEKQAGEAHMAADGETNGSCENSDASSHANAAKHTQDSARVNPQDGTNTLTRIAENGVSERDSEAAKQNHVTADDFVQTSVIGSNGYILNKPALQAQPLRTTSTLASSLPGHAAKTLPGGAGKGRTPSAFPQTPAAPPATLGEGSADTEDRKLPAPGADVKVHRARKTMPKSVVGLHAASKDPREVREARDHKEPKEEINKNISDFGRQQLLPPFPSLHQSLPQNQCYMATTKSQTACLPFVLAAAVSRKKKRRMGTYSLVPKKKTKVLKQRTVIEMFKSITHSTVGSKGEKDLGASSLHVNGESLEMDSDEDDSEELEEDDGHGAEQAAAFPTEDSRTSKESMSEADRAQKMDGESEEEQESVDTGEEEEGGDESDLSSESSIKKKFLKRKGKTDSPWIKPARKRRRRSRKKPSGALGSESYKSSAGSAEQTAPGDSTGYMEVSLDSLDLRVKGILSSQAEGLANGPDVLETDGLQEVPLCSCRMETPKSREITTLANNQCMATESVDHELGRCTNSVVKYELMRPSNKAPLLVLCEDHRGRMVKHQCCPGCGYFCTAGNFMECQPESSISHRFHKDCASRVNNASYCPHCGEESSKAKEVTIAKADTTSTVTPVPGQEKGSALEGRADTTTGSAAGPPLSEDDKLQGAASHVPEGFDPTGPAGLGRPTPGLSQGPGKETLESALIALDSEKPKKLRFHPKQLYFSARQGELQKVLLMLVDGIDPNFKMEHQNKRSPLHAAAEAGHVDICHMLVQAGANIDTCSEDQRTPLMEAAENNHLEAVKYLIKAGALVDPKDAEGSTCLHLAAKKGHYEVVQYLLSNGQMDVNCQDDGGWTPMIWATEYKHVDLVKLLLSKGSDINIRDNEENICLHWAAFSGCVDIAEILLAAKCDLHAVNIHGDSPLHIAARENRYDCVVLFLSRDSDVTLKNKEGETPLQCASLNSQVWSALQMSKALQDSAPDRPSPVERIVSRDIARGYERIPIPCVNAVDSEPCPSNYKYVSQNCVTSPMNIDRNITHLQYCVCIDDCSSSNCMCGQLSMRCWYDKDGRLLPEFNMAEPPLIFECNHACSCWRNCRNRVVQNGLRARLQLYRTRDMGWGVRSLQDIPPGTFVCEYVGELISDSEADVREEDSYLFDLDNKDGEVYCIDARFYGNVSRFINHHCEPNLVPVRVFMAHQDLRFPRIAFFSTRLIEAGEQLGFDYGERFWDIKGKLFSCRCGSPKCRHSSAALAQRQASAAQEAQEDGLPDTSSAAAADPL

| SMILES | IC50 [1] [µM] | IC50 [2] [µM] |
| --- | --- | --- |
| CCN1CC(COc2cc(Nc3cc(NC)ncc3F)ncc2OC)C1 [Compound 566] | 1 to 10 | 1 to 10 |
| COc1cnc(Nc2cccn3ccnc23)cc1OCCCN1CCCC1 [Compound 586] | 1 to 10 | 1 to 10 |
| C/C=C/C(=O)Nc1cc(OCCCN2CCCC2)c(OC)cn1 [Compound 597] | > 10 | > 10 |
| CCCCN1CCC(C)(Nc2nccc(NC)n2)CC1 [Compound 550, N^2-(1-butyl-4-methylpiperidin-4-yl)-N^4-methylpyrimidine-2,4-diamine] | > 10 | > 10 |
| COc1cnc(Nc2cccc3nccn23)cc1OCCCN1CCCC1 [Compound 585] | 1 to 10 | 1 to 10 |
| CN1CCC(COc2cnc(NC3CCNCC3)nc2)C1 (stereo not shown) [Compound 555] | > 10 | > 10 |
| c1nc(NC2CCNCC2)ncc1OCC1CCN(C2CC2)C1 (stereo not shown) [Compound 556] | > 10 | > 10 |
| CNc1cc(C)nc(Nc2ccc(OC)c(OCC3CN(C(C)C)C3)c2)n1 [Compound 575] | 1 to 10 | 0.1 to 1 |
| CCN1CC[C@@H](COc2cc(Nc3nc(C)cc(NC)n3)cnc2OC)C1 [Compound 599] | 0.1 to 1 | < 0.1 |
| CNc1ccnc(N[C@@H]2CC[C@H](N)C2)n1 [Compound 548, N^2-((1R,3S)-3-aminocyclopentyl)-N^4-methylpyrimidine-2,4-diamine] | > 10 | > 10 |
| CNc1cc(C)nc(Nc2cnc(OC)c(OC[C@H]3CCN(C4CC4)C3)c2)n1 [Compound 558] | 0.1 to 1 | < 0.1 |
| CNc1ccnc(Nc2cc(OCCCN3CCCC3)c3[nH]ncc3c2)n1 [Compound 539] | 1 to 10 | > 10 |
| CNc1ccnc(NC2CCNCC2)n1 [Compound 542, N^4-methyl-N^2-(piperidin-4-yl)pyrimidine-2,4-diamine] | > 10 | > 10 |
| CN1CCC(COc2ccc(NC3CCNCC3)nc2)C1 (stereo not shown) [Compound 554] | > 10 | > 10 |
| CN1CCC(COc2cnc(NCC3CCOCC3)nc2)C1 (stereo not shown) [Compound 553] | > 10 | > 10 |
| CCN1CC(COc2cc(Nc3nccc4[nH]ccc34)ncc2OC)C1 [Compound 564] | < 0.1 | < 0.1 |
| CCCC1(Nc2nccc(NC)n2)CCCNC1 (stereo not shown) [Compound 544] | > 10 | > 10 |

| SMILES | IC50 [1] [µM] | IC50 [2] [µM] |
| --- | --- | --- |
| CCCCN1CCCC(C)(Nc2nccc(NC)n2)C1 (stereo not shown) [Compound 549, N^2-(1-butyl-3-methylpiperidin-3-yl)-N^4-methylpyrimidine-2,4-diamine] | > 10 | > 10 |
| CNc1cc(C)nc(Nc2ccc(OC)c(O)c2)n1 [Compound 561] | > 10 | > 10 |
| CCN1CC(COc2cc(Nc3cc(NC)cc(C)n3)cnc2OC)C1 [Compound 569] | 0.1 to 1 | < 0.1 |
| CNc1ccnc(NC2CCCNC2)n1 (stereo not shown) [Compound 541, N^4-methyl-N^2-(piperidin-3-yl)pyrimidine-2,4-diamine] | > 10 | > 10 |
| COc1cc2c(C3CCN(C)CC3)nc(N(C)C)nc2cc1OCCCN1CCCC1 [Compound 587] | < 0.1 | < 0.1 |
| CCN1CC(COc2cc(Nc3cc(NC)nc(C)c3F)ncc2OC)C1 [Compound 567] | 1 to 10 | 1 to 10 |
| c1nc(NC2CCNCC2)ncc1OCCCN1CCCC1 [Compound 552] | > 10 | > 10 |
| CC(C)N1CC(COc2cnc(NC3CCNCC3)nc2)C1 [Compound 588] | > 10 | > 10 |
| CNc1ccnc(Nc2cc(OCCCN3CCCC3)c3cn[nH]c3c2)n1 [Compound 538, N^4-methyl-N^2-(4-(3-(pyrrolidin-1-yl)propoxy)-1H-indazol-6-yl)pyrimidine-2,4-diamine] | 0.1 to 1 | 0.1 to 1 |
| COc1cnc(Nc2cccc3cncn23)cc1OCCCN1CCCC1 [Compound 589] | > 10 | > 10 |
| CNc1cc(C)nc(Nc2ccc(OC)c(OCC3CN(C(C)C)C3)c2)n1 [Compound 559] | 0.1 to 1 | < 0.1 |
| COc1cnc(Nc2cccc3[nH]ncc23)cc1OCCCN1CCCC1 [Compound 581] | 1 to 10 | > 10 |
| COc1cnc(Nc2ccnc3[nH]ncc23)cc1OCCCN1CCCC1 [Compound 583] | 1 to 10 | 1 to 10 |
| CNc1ccnc(NC2(C)CCNCC2)n1 [Compound 547, N^4-methyl-N^2-(4-methylpiperidin-4-yl)pyrimidine-2,4-diamine] | > 10 | > 10 |
| CCN1CC(C(O)Oc2cc(Nc3nc(C)cc(NC)n3)ccc2OC)C1 (stereo not shown) [Compound 560] | 0.1 to 1 | 0.1 to 1 |
| CCN1CC(C(C#N)Oc2cc(Nc3nc(C)cc(NC)n3)ccc2OC)C1 (stereo not shown) [Compound 562] | 1 to 10 | 1 to 10 |

Other lines, results leading:

| IC50 [1] [µM] | IC50 [2] [µM] | SMILES |
| --- | --- | --- |
| 1 to 10 | 1 to 10 | COc1cc(NC2CCCNC2)ccc1OCCCN1CCCC1 (stereo not shown) [Compound 578] |
| > 10 | > 10 | COc1ccc(NC2CCNCC2)cc1OCCCN1CCCC1 [Compound 572] |
| 0.1 to 1 | < 0.1 | CNc1cc(C)nc(Nc2ccc(OC)c(OCC3CN(C4CCC4)C3)c2)n1 [Compound 576] |
| < 0.1 | < 0.1 | COc1ccc(Nc2nc(C)cc(NCC3CCOCC3)n2)cc1OCCCN1CCCC1 [Compound 590] |
| > 10 | > 10 | CNc1cc(C)nc(Nc2ccc(OC)c(OCC3CN(C4CCOC4)C3)c2)n1 (stereo not shown) [Compound 580] |
| > 10 | > 10 | COc1ccc(Nc2nccc3[nH]ncc23)cc1OCCCN1CCCC1 [Compound 582] |
| 1 to 10 | 1 to 10 | COc1cc(NC2CCNCC2)ccc1OCCCN1CCCC1 [Compound 579] |
| 0.1 to 1 | 0.1 to 1 | CNc1cc(C)nc(Nc2ccc(OC)c(OCCCN(C)C3CCC3)c2)n1 [Compound 551, N^2-(3-(3-(cyclobutyl(methyl)amino)propoxy)-4-methoxyphenyl)-N^4,6-dimethylpyrimidine-2,4-diamine] |
| 0.1 to 1 | 0.1 to 1 | COc1ncc(Nc2nc(C)cc(NC(C)C)n2)cc1OCCCN1CCCC1 [Compound 593] |
| < 0.1 | < 0.1 | COc1ncc(Nc2nc(C)cc(NCC3CCOCC3)n2)cc1OCCCN1CCCC1 [Compound 591] |
| 1 to 10 | 0.1 to 1 | CNc1cc(C)nc(Nc2ccc(OC)c(OCC3CN(C4CCCC4)C3)c2)n1 [Compound 577] |
| 1 to 10 | 1 to 10 | COc1cnc(Nc2cc(C)nc3[nH]ncc23)cc1OCCCN1CCCC1 [Compound 596] |
| 0.1 to 1 | 0.1 to 1 | COc1ncc(Nc2nc(C)cc(NCC3CCOCC3)n2)cc1OC[C@@H]1CCN(C(C)C)C1 [Compound 592] |
| < 0.1 | < 0.1 | COc1ccc(Nc2nc(C)cc(NC(C)C)n2)cc1OCCCN1CCCC1 [Compound 603] |
| < 0.1 | < 0.1 | CNc1cc(C)nc(Nc2ccc(OC)c(OC[C@@H]3CCN(C4CCC4)C3)c2)n1 [Compound 563] |
| < 0.1 | < 0.1 | CNc1cc(C)nc(Nc2ccc(OC)c(OC[C@@H]3CCNC3)c2)n1 [Compound 600] |
| 0.1 to 1 | 0.1 to 1 | CCN1CC[C@@H](COc2cc(Nc3nc(C)cc(NC(C)C)n3)ccc2OC)C1 [Compound 602] |

Source: patent US20210198277A1, “AMINE-SUBSTITUTED ARYL OR HETEROARYL COMPOUNDS” (Epizyme, Inc., priority 2016, published 2021)
